Measurements taken from patent US9132130B2, “Purine derivative and antitumor agent using same” (ZENYAKU KOGYO KABUSHIKI KAISHA, priority 2009, dated 2015).
Counter-ions that a name gives are not always drawn.

Columns and labels:
Type in all cases: cell-based
[1] = test system: P388 cells (mouse leukemia cells); assay: in vitro antitumor activity test, P388 cells, XTT colorimetry; conditions: cultured 72 hours
Method: P388 cells (mouse leukemia cells) passaged in the abdominal cavity of DBA/2 mice were extracted with ascitic fluid, and cultured in a RPMI 1640 medium (added with 10% fetal bovine serum, 25 mM HEPES, 0.1 mg/ml kanamycin and 5 μM 2-hydroxyethyldisulfide) at 37° C. in 5% carbon dioxide gas. After culturing for 16 hours, floating P388 cells were made into a single cell suspension of 4×10^4 cells per 1 ml using the same RPMI 1640 medium as given above. The test substances were dissolved in DMSO, then diluted in a RPMI 1640 medium (added with 10% fetal bovine serum, 25 mM HEPES and 0.1 mg/ml kanamycin) and prepared so that the concentrations were 2.0×10^−9 to 2.0×10^−4 M.
0.1 ml of the cell suspension was placed into each well of 96-well microplates, then 0.1 ml of the sample solutions were added, and cultured for 72 hours at 37° C. in 5% carbon dioxide gas.
(§1) Afterwards, the level of growth inhibition at various sample concentrations was obtained using XTT colorimetry, and concentrations at which growth was inhibited by 50% (GI50 values [μM]) were calculated.

[2] = test system: PC-3 cells (human prostate cancer cells); assay: in vitro antitumor activity test, PC-3 cells, XTT colorimetry; conditions: PC-3 human prostate cancer cells, cultured 72 hours
Method: (§2) WiDr cells (human colon cancer cells) subcultured in a culture medium composed of a MEM medium added with 10% fetal bovine serum, 25 mM HEPES and 0.1 mg/ml kanamycin under the conditions of 37° C. and 5% carbon dioxide gas were made into single floating cells by treating with trypsin/EDTA, and a single cell suspension of 3×10^4 cells per 1 ml was prepared using the MEM medium (added with 10% fetal bovine serum, 25 mM HEPES and 0.1 mg/ml kanamycin). After dissolving the test compounds in DMSO, they were diluted in a RPMI 1640 medium (added with 10% fetal bovine serum, 25 mM HEPES and 0.1 mg/ml kanamycin) and prepared so that the concentrations were 2.0×10^−9 to 2.0×10^−4 M.
(§3) 0.1 ml of the cell suspension was placed into each well of 96-well microplates, cultured for 24 hours to allow the cells to adhere to the microplates, then 0.1 ml of the sample solutions were added, and cultured for 72 hours at 37° C. in 5% carbon dioxide gas.
as §1
(§4) In addition, cells other than WiDr cells that were used, and the condition for preparing each single cell suspension were as follows.
PC-3 cells (human prostate cancer cells): 2×10^4 cells/ml

[3] = test system: B16F10 cells (mouse melanoma [malignant melanoma] cells); assay: in vitro antitumor activity test, B16F10 cells, XTT colorimetry; conditions: B16-F10, cultured 72 hours
Method: as §2, §3, §1, §4
B16F10 cells (mouse melanoma [malignant melanoma] cells): 1×10^4 cells/ml

[4] = test system: WiDr cells (human colon cancer cells); assay: in vitro antitumor activity test, WiDr cells, XTT colorimetry; conditions: cultured 72 hours
Method: as §2, §3, §1

[5] = test system: A549 cells (human lung cancer cells); assay: in vitro antitumor activity test, A549 cells, XTT colorimetry; conditions: cultured 72 hours
Method: as §2, §3, §1, §4
A549 cells (human lung cancer cells): 2×10^4 cells/ml

GI50 [1] [nM]	GI50 [2] [nM]	GI50 [3] [nM]	GI50 [4] [nM]	GI50 [5] [nM]	SMILES
950	640	1610	1190	1250	CCc1nc2c(N3CCN(N=O)C(C)C3)nc(SCc3ccc(OC)cc3)nc2n1C (stereo in doubt) [Compound 22, 8-ethyl-2-(4-methoxybenzylsulfanyl)-9-methyl-6-[(3S)-3-methyl-4-nitrosopiperazin-1-yl]-9H-purine]
290	280	410	350	560	CCc1nc2c(N3CCOCC3)nc(SCc3ccc(OC)cc3)nc2n1C [Compound 1, 8-ethyl-2-(4-methoxybenzylsulfanyl)-9-methyl-6-morpholino-9H-purine]
720	600	1160	940	870	CCCn1c(CC)nc2c(N3CCOCC3)nc(SCc3ccc(OC)cc3)nc21 [Compound 6, 8-ethyl-2-(4-methoxybenzylsulfanyl)-6-morpholino-9-propyl-9H-purine]
300	380	1170	400	570	COc1ccc(CSc2nc(N3CCOCC3)c3ncn(C)c3n2)cc1 [Compound 9, 2-(4-methoxybenzylsulfanyl)-9-methyl-6-morpholino-9H-purine]
360	460	1290	510	760	CCOc1ccc(CSc2nc(N3CCOCC3)c3nc(CC)n(C)c3n2)cc1 [Compound 17, 2-(4-ethoxybenzylsulfanyl)-8-ethyl-9-methyl-6-morpholino-9H-purine]
350	690	1090	3140	950	COc1ccc(CSc2nc(N3CCOCC3)c3ncn(C)c3n2)cc1N [Compound 18, 2-(3-amino-4-methoxybenzylsulfanyl)-9-methyl-6-morpholino-9H-purine]
320	400	450	4040	450	COc1ccc(CSc2nc(N(C)C)c3ncn(C)c3n2)cc1N [Compound 19, 2-(3-amino-4-methoxybenzylsulfanyl)-6-dimethylamino-9-methyl-9H-purine]
100	140	340	140	220	COc1ccc(CSc2nc(N(C)C)c3ncn(C)c3n2)cc1 [Compound 21, 6-dimethylamino-2-(4-methoxybenzylsulfanyl)-9-methyl-9H-purine]
200	260	440	210	320	CCc1nc2c(N(C)C)nc(SCc3ccc(OC)cc3)nc2n1C [Compound 24, 6-dimethylamino-8-ethyl-2-(4-methoxybenzylsulfanyl)-9-methyl-9H-purine]
680	1130	1380	820	950	CCN(CC)c1nc(SCc2ccc(OC)cc2)nc2c1ncn2C [Compound 25, 6-diethylamino-2-(4-methoxybenzylsulfanyl)-9-methyl-9H-purine]
70	110	340	80	110	CNc1nc(SCc2ccc(OC)cc2)nc2c1ncn2C [Compound 26, 2-(4-methoxybenzylsulfanyl)-9-methyl-6-methylamino-9H-purine]
90	150	280	830	120	CNc1nc(SCc2ccc(OC)c(N)c2)nc2c1ncn2C [Compound 45, 2-(3-amino-4-methoxybenzylsulfanyl)-9-methyl-6-methylamino-9H-purine]

More lines, now with the values behind:

SMILES	GI50 [1] [nM]	GI50 [2] [nM]	GI50 [3] [nM]	GI50 [4] [nM]	GI50 [5] [nM]
CCc1nc2c(N3CCOCC3)nc(SCc3ccc(C)cc3)nc2n1C [Compound 8, 8-ethyl-9-methyl-2-(4-methylbenzylsulfanyl)-6-morpholino-9H-purine]	1020	610	1700	1470	2200
C=Cc1ccc(CSc2nc(N3CCOCC3)c3nc(CC)n(C)c3n2)cc1 [Compound 10, 8-ethyl-9-methyl-6-morpholino-2-(4-vinylbenzylsulfanyl)-9H-purine]	1280	890	1820	1250	1690
CCc1nc2c(N3CCOCC3)nc(SCc3ccc(C)c(F)c3)nc2n1C [Compound 11, 8-ethyl-2-(3-fluoro-4-methylbenzylsulfanyl)-9-methyl-6-morpholino-9H-purine]	670	400	1490	1040	1160
CCc1ccc(CSc2nc(N3CCOCC3)c3nc(CC)n(C)c3n2)cc1 [Compound 12, 8-ethyl-2-(4-ethylbenzylsulfanyl)-9-methyl-6-morpholino-9H-purine]	1250	850	3910	1240	1890
CCc1nc2c(N3CCOCC3)nc(SCc3ccc(OC)c(F)c3)nc2n1C [Compound 14, 8-ethyl-2-(3-fluoro-4-methoxybenzylsulfanyl)-9-methyl-6-morpholino-9H-purine]	200	160	340	260	120
CCc1nc2c(N3CCOCC3)nc(SCc3ccc(OC)cc3OCc3ccccc3)nc2n1C [Compound 15, 2-(2-benzyloxy-4-methoxybenzylsulfanyl)-8-ethyl-9-methyl-6-morpholino-9H-purine]	870	820	1800	1160	2280
CCc1nc2c(N3CCOCC3)nc(SCc3ccc(OC)c(Cl)c3)nc2n1C [Compound 16, 2-(3-chloro-4-methoxybenzylsulfanyl)-8-ethyl-9-methyl-6-morpholino-9H-purine]	850	910	1680	1220	1750
CCc1nc2c(N3CCN(N=O)CC3)nc(SCc3ccc(OC)c(F)c3)nc2n1C [Compound 20, 8-ethyl-2-(3-fluoro-4-methoxybenzylsulfanyl)-9-methyl-6-(4-nitrosopiperazin-1-yl)-9H-purine]	80	40	320	80	160
CCc1nc2c(N(C)C)nc(SCc3ccc(OC)c(N)c3)nc2n1C [Compound 23, 2-(3-amino-4-methoxybenzylsulfanyl)-6-dimethylamino-8-ethyl-9-methyl-9H-purine]	230	130	500	440	250
CCc1nc2c(N3CCOCC3)nc(SCc3ccc(OC)c(NC(C)=O)c3)nc2n1C [Compound 27, 2-(3-acetylamino-4-methoxybenzylsulfanyl)-8-ethyl-9-methyl-6-morpholino-9H-purine]	670	650	1340	920	580
CCc1nc2c(N3CCOCC3)nc(SCc3ccc(OC)c(NC(=O)CN)c3)nc2n1C [Compound 28, 2-[3-(2-aminoacetylamino)-4-methoxybenzylsulfanyl]-8-ethyl-9-methyl-6-morpholino-9H-purine hydrochloride]	810	990	1140	1200	900
CCc1nc2c(N3CCOCC3)nc(SCc3ccc(I)cc3)nc2n1C [Compound 49, 8-ethyl-2-(4-iodobenzylsulfanyl)-9-methyl-6-morpholino-9H-purine]	290	460	1340	390	320
CCc1nc2c(N3CCOCC3)nc(SCCCc3ccc(OC)cc3)nc2n1C [Compound 50, 8-ethyl-2-[3-(4-methoxyphenyl)propylsulfanyl]-9-methyl-6-morpholino-9H-purine]	380	620	1430	1020	890
